Measured values published in the supplement of paper PMC10883282.
± gives the standard deviation of the averaged measurements.

Tested on: MES-SA
Assay: relative viability vs DMSO control (72 h) (fraction); higher = more viable cells
How it was run: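 Sarcoma cell lines were seeded in 384-well plates at densities chosen for 80–90% confluence, then 24 h later given 2.5 µl of serially diluted compound drawn from source plates spanning 10 mM to 0.0002 mM. They were held 72 h at 37 °C, 5% CO2, with 0.1% DMSO vehicle and a 5 µM positive control included. Relative viability was read with ATPLite as percent growth and averaged over up to triplicate wells. Rescaling placed full at 1 and none at 0.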

Row | SMILES | relative viability (0.00017 µM) | relative viability (0.00051 µM) | relative viability (0.00152 µM) | relative viability (0.00457 µM) | relative viability (0.01372 µM) | relative viability (0.04115 µM) | relative viability (0.1235 µM) | relative viability (0.3704 µM) | relative viability (1.111 µM) | relative viability (3.333 µM) | relative viability (10 µM) | relative viability (2 pM) | relative viability (5 pM) | relative viability (15 pM) | relative viability (50 pM) | relative viability (0.00014 µM) | relative viability (0.00041 µM) | relative viability (0.0012 µM) | relative viability (0.0037 µM) | relative viability (0.011 µM) | relative viability (200 fM) | relative viability (600 fM)
1 | C[C@@H]1CCN(C(=O)CC#N)C[C@@H]1N(C)c1ncnc2[nH]ccc12 [Tofacitinib] | 0.985 ± 0.035 | 0.955 ± 0.064 | 0.96 ± 0.043 | 0.963 ± 0.05 | 0.966 ± 0.033 | 0.976 ± 0.025 | 0.974 ± 0.031 | 0.953 ± 0.028 | 0.952 ± 0.056 | 0.927 ± 0.042 | 0.873 ± 0.049 |  |  |  |  |  |  |  |  |  |  | 
2 | CC[C@H](Nc1ncnc2[nH]cnc12)c1nc2cccc(F)c2c(=O)n1-c1ccccc1 [Idelalisib] | 1.01 ± 0.021 | 1 ± 0.034 | 0.993 ± 0.03 | 0.964 ± 0.015 | 0.971 ± 0.038 | 0.972 ± 0.036 | 0.986 ± 0.022 | 0.937 ± 0.016 | 0.889 ± 0.031 | 0.867 ± 0.029 | 0.711 ± 0.023 |  |  |  |  |  |  |  |  |  |  | 
3 | COc1cc2nccc(Oc3ccc(NC(=O)Nc4cc(C)on4)c(Cl)c3)c2cc1OC [Tivozanib] | 0.914 ± 0.018 | 0.926 ± 0.051 | 0.925 ± 0.036 | 0.932 ± 0.035 | 0.94 ± 0.0096 | 0.944 ± 0.035 | 0.923 ± 0.013 | 0.955 ± 0.025 | 0.977 ± 0.021 | 0.697 ± 0.041 | 0.231 ± 0.0086 |  |  |  |  |  |  |  |  |  |  | 
4 | COc1cc2c(cc1O)CCN[C@]21CS[C@@H]2c3c(OC(C)=O)c(C)c4c(c3[C@H](COC1=O)N1[C@@H]2[C@H]2c3c(cc(C)c(OC)c3O)C[C@@H]([C@@H]1O)N2C)OCO4 [Trabectedin] |  |  |  |  |  |  |  |  |  |  |  | 0.939 ± 0.021 | 0.903 ± 0.022 | 0.886 ± 0.036 | 0.819 ± 0.039 | 0.667 ± 0.049 | 0.471 ± 0.025 | 0.0389 ± 0.024 | 0.0573 ± 0.00061 | 0.0496 ± 0.003 | 0.997 ± 0.015 | 0.963 ± 0.015
5 | N#CC[C@H](C1CCCC1)n1cc(-c2ncnc3[nH]ccc23)cn1 [Ruxolitinib] | 1.02 ± 0.024 | 1.01 ± 0.024 | 0.997 ± 0.015 | 0.962 ± 0.058 | 0.992 ± 0.03 | 0.979 ± 0.058 | 0.957 ± 0.042 | 0.981 ± 0.02 | 0.84 ± 0.04 | 0.825 ± 0.042 | 0.679 ± 0.035 |  |  |  |  |  |  |  |  |  |  | 
6 | Cc1cc(C)c(/C=C2\C(=O)Nc3ccccc32)[nH]1 [Semaxanib] | 0.908 ± 0.058 | 0.866 ± 0.02 | 0.866 ± 0.022 | 0.892 ± 0.027 | 0.882 ± 0.04 | 0.861 ± 0.061 | 0.871 ± 0.059 | 0.895 ± 0.035 | 0.889 ± 0.044 | 0.867 ± 0.041 | 0.798 ± 0.048 |  |  |  |  |  |  |  |  |  |  | 
7 | O=C(Cc1ccc(-c2ccc(OCCN3CCOCC3)cc2)cn1)NCc1ccccc1 [KX2-391] | 0.988 ± 0.041 | 0.976 ± 0.018 | 0.946 ± 0.018 | 0.949 ± 0.026 | 0.9439 ± 0.0022 | 0.448 ± 0.042 | 0.2711 ± 0.0024 | 0.179 ± 0.0046 | 0.143 ± 0.0031 | 0.133 ± 0.004 | 0.13 ± 0.0027 |  |  |  |  |  |  |  |  |  |  | 
8 | COc1cc2c(Oc3ccc4[nH]c(C)cc4c3F)ncnc2cc1OCCCN1CCCC1 [Cediranib] | 0.944 ± 0.036 | 0.934 ± 0.065 | 0.949 ± 0.041 | 0.929 ± 0.037 | 0.967 ± 0.012 | 0.95 ± 0.02 | 0.9503 ± 0.0085 | 0.966 ± 0.029 | 0.774 ± 0.037 | 0.619 ± 0.02 | 0.257 ± 0.023 |  |  |  |  |  |  |  |  |  |  | 
9 | CO[C@H]1C[C@@H]2CC[C@@H](C)[C@@](O)(O2)C(=O)C(=O)N2CCCC[C@H]2C(=O)O[C@H]([C@H](C)C[C@@H]2CC[C@@H](OP(C)(C)=O)[C@H](OC)C2)CC(=O)[C@H](C)/C=C(\C)[C@@H](O)[C@@H](OC)C(=O)[C@H](C)C[C@H](C)/C=C/C=C/C=C/1C [Ridaforolimus] | 0.888 ± 0.04 | 0.827 ± 0.055 | 0.599 ± 0.0079 | 0.489 ± 0.015 | 0.423 ± 0.021 | 0.403 ± 0.024 | 0.4 ± 0.0088 | 0.368 ± 0.027 | 0.376 ± 0.0059 | 0.367 ± 0.023 | 0.374 ± 0.024 |  |  |  |  |  |  |  |  |  |  | 
10 | Cc1cnc(Nc2ccc(OCCN3CCCC3)cc2)nc1Nc1cccc(S(=O)(=O)NC(C)(C)C)c1 [Fedratinib] | 0.966 ± 0.046 | 0.959 ± 0.035 | 0.953 ± 0.026 | 0.937 ± 0.029 | 0.949 ± 0.025 | 0.907 ± 0.018 | 0.861 ± 0.018 | 0.679 ± 0.03 | 0.2659 ± 0.0019 | 0.18 ± 0.0027 | 0.028 ± 0.0026 |  |  |  |  |  |  |  |  |  |  | 
11 | Cn1cc(-c2cc3c(N4CCN(c5ncc([C@@](C)(N)c6ccc(F)cc6)cn5)CC4)ncnn3c2)cn1 [Avapritinib] | 0.882 ± 0.024 | 0.867 ± 0.036 | 0.8778 ± 0.0081 | 0.884 ± 0.016 | 0.91 ± 0.016 | 0.902 ± 0.038 | 0.898 ± 0.02 | 0.884 ± 0.018 | 0.795 ± 0.014 | 0.624 ± 0.02 | 0.51 ± 0.011 |  |  |  |  |  |  |  |  |  |  | 
12 | CN1CCN(c2ccc3nc(-c4c(N)c5c(F)cccc5[nH]c4=O)[nH]c3c2)CC1 [Dovitinib] | 0.945 ± 0.032 | 0.974 ± 0.029 | 0.95 ± 0.021 | 0.95 ± 0.017 | 0.9483 ± 0.0052 | 0.9283 ± 0.009 | 0.921 ± 0.04 | 0.836 ± 0.041 | 0.4858 ± 0.0047 | 0.191 ± 0.012 | 0.0897 ± 0.0022 |  |  |  |  |  |  |  |  |  |  | 
